Assay results: article PMC5556071, “ATR inhibition facilitates targeting of leukemia dependence on convergent nucleotide biosynthetic pathways” (Nature Communications, 2017)
Values joined by “and” are separate entries in the source; they are usually repeats but may differ in a detail not shown here. Equal values may be shown once.

Columns and labels:
[1] = test system: CEM cells; test: Targeted LC-MS/MS-MRM of de novo and salvage dCTP biosynthesis (nucleotide pools and newly replicated DNA); assay type: cell-based, human; set-up: key to Substrate utilization Glucose / Substrate utilization dC: ↓: partial decrease/inhibition; ↓↓↓: nearly complete inhibition; ↑: increase; ⟷: no change
Description: Cells were transferred into RPMI-1640 without glucose and supplemented with 10% dialyzed FBS (Gibco) containing the following labeled substrates: precursors for de novo [U-^13C6]glucose (Sigma-Aldrich, 389374) at 11 mM; precursors for purine salvage [U-^13C10,^15N5]dA (Cambridge Isotopes, CIL 3896), [^15N5]dA (Cambridge Isotopes, NLM-3895) and [^15N5]dG (Cambridge Isotopes, NLM-3899) at 5 µM or as indicated; and precursors for pyrimidine salvage: [U-^13C9,^15N3]dC (Silantes, 124603602) and [U-^13C10,^15N2]dT (Cambridge Isotopes, CNLM-3902) at 5 µM and [^15N2]orotate (Cambridge Isotopes, NLM-1048) at indicated concentrations. The cells were incubated for 12 h or as indicated before sample collection and processing.
The rates of dCTP incorporation into the DNA were determined using linear regression with procedure GLM in SAS (v. 9.4). DNA % label was transformed using a shifted log addition of 1 due to the presence of zeros in the data set. Rates were calculated using the slope of the regression line for the log transformed data and are presented in the table with the associated standard errors, along with the ratio between the rate of incorporation into DNA by the de novo and salvage pathways (Table 1).
Cell cycle synchronization. Cells were treated with a CDK4/6 inhibitor, Pablociclib or PD-0332991 (Selleckchem, S1116) for 18 h to synchronize them in the G1 phase. Subsequently, cells were washed twice with PBS containing 2% FBS (Omega Scientific) and released into fresh media. […]
Clinical Microarray Core on an Illumina HiSeq3000 using the SeqCap EZ Exome Enrichment Kit v3.0 (Roche).
Reads were mapped to UCSC hg19 (bwa-mem), deduplicaed (PicardTools), and subjected to base quality score recalibration and realignment around known indels according to the Broad Institute Genome Analysis Toolkit (GATK) Best Practices v3.0. Variants in genes associated with nucleotide biosynthesis were identified using the GATK HaplotypeCaller, and annotated with Oncotator (http://portals.broadinstitute.org/oncotator/). dNTP sample processing. 0.5 – 1 x 10^6 cells were collected into 1.5 mL microcentrifuge tubes and centrifuged (450 x g, 4 min, 4 °C). The supernatant was carefully aspirated and the cells were washed twice with 1 mL of cold PBS, followed each time by centrifugation (450 x g, 4 min 4 °C). The PBS were aspirated.
Thereafter, the pellets were treated with 10 µL of 10% trifluoroacetic acid with internal standards (1 µM […]
s, and incubated on ice for 10 min. 40 µL of 500 mM ammonium acetate, pH = 9.3, with the same internal standard (1 µM [15N3]dCMP and [15N3]dCTP) was then added and the samples were vigorously vortexed again for 30 s. The samples were centrifuged (14,000 x g, 10 min, 4 °C) to remove cell debris. The supernatants (~ 40 µL) were transferred into HPLC injector vials. Stock solutions (10 mM) of rCTP, rCDP, dCMP, dCDP, and dCTP (Sigma Aldrich) were prepared individually in water, and stored at –20 °C before use to generate calibration standards. Calibration standards were prepared and mixed together in water with internal standards (1 µM [15N3]dCMP and [15N3]dCTP) to make working stock concentrations in 100 nM – 100 µM range.
Calibration standards were diluted 10-fold into the same nucleotide extraction solution of 10% TFA/500 mM ammonium acetate (1:4, v/v) with internal standards (1 µM [15N3]dCMP and [15N3]dCTP) to give a final concentration in 10 nM – 10 µM. Nucleotide and calibration samples were processed together to minimize […]
DNA sample processing. Genomic DNA from 0.5 – 1 x 10^4 cells was extracted using the Quick-gDNA MiniPrep kit (Zymo Research, D3021) and hydrolyzed to nucleosides using the DNA Degradase Plus kit (Zymo Research, E2021), following manufacturer-supplied instructions. In the final step of DNA extraction, 50 µL of […]
water was used to elute the DNA into 1.5 mL microcentrifuge tubes. A nuclease solution (5 µL; 10X buffer/DNA Degradase Plus™/water, 2.5/1/1.5, v/v/v) was added to 20 µL of the eluted genomic DNA in an HPLC injector […]
vial. […]

[2] = test system: dasatinib-resistant p185BCR-ABL Arf–/– pre-B-ALL cells; test: Apoptosis assay, Annexin V and PI staining; assay type: cell-based, mouse; conditions: 350 nM 3-AP, 100 nM VE-822, 1 µM dCKi, 72 h
Description: Apoptosis and cell death were assayed using Annexin V-FITC and PI according to manufacturer’s instructions (FITC Annexin V Apoptosis Detection Kit, BD Sciences, #556570). […]
Annexin V staining. Cells were treated with the indicated treatments for 24 or 72 h, then collected and washed twice with 1 mL of FACS buffer (2% FBS in PBS). Induction of apoptosis and cell death were assayed by staining the cells with Annexin V-FITC and PI according to manufacturer’s instructions (FITC Annexin V Apoptosis Detection Kit, BD Sciences, #556570).
FACS analysis. All flow cytometry data were acquired on five-laser LSRII cytometers (BD) for analysis, and analyzed using FlowJo software (Tree Star). […]

[3] = CEM 12 h, 1 uM VE-822, 1 uM DI-82, 500 nM 3-AP, #1-#3
[4] = CEM after release from G1 arrest

Structure (SMILES): COc1ccc(-c2nc([C@@H](C)Sc3nc(N)cc(N)n3)c(C)s2)cc1OCCNS(C)(=O)=O [dCKi]
- reduction of the amount of free dCTP ([1]; 12 h time point after release from G1 arrest): ~ 50%
- % sum abundance, de novo DNA-C, mass increase in nucleobase +0, in deoxyribose +3 [1, 3]: 0.18% and 0.19%
- % sum abundance, de novo DNA-C, mass increase in nucleobase +0, in deoxyribose +4 [1, 3]: 0.58% and 0.55%
- % sum abundance, de novo DNA-C, mass increase in nucleobase +0, in deoxyribose +5 [1, 3]: 9.50% and 9.45% and 9.86%
- % sum abundance, de novo DNA-C, mass increase in nucleobase +1, in deoxyribose +3 [1, 3]: 0.00%
- % sum abundance, de novo DNA-C, mass increase in nucleobase +1, in deoxyribose +4 [1, 3]: 0.09% and 0.07%
- % sum abundance, de novo DNA-C, mass increase in nucleobase +1, in deoxyribose +5 [1, 3]: 1.18% and 1.24%
- % sum abundance, de novo DNA-C, mass increase in nucleobase +2, in deoxyribose +4 [1, 3]: 0.053% and 0.05%
- % sum abundance, de novo DNA-C, mass increase in nucleobase +2, in deoxyribose +5 [1, 3]: 0.82% and 0.79% and 0.87%
- % sum abundance, de novo DNA-C, mass increase in nucleobase +3, in deoxyribose +4 [1, 3]: 0.00%
- % sum abundance, de novo DNA-C, mass increase in nucleobase +3, in deoxyribose +5 [1, 3]: 0.20% and 0.19%
- % sum abundance, de novo DNA-C, mass increase in nucleobase +4, in deoxyribose +4 [1, 3]: 0.00%
- % sum abundance, de novo DNA-C, mass increase in nucleobase +4, in deoxyribose +5 [1, 3]: 0.00%
- % sum abundance, salvage DNA-C, mass increase in nucleobase +5, in deoxyribose +0 [1, 3]: 0.00%
- % sum abundance, salvage DNA-C, mass increase in nucleobase +5, in deoxyribose +4 [1, 3]: 0.00%
- % sum abundance, salvage DNA-C, mass increase in nucleobase +5, in deoxyribose +5 [1, 3]: 0.00%
- % sum abundance, salvage DNA-C, mass increase in nucleobase +6, in deoxyribose +0 [1, 3]: 0.00%
- % sum abundance, salvage DNA-C, mass increase in nucleobase +6, in deoxyribose +4 [1, 3]: 0.00%
- % sum abundance, salvage DNA-C, mass increase in nucleobase +6, in deoxyribose +5 [1, 3]: 0.00%
- % sum abundance, salvage DNA-C, mass increase in nucleobase +7, in deoxyribose +0 [1, 3]: 0.00%
- % sum abundance, salvage DNA-C, mass increase in nucleobase +7, in deoxyribose +4 [1, 3]: 0.00%
- % sum abundance, salvage DNA-C, mass increase in nucleobase +7, in deoxyribose +5 [1, 3]: 0.07% and 0.09% and 0.0853%
- % sum abundance, unlabeled DNA-C, mass increase in nucleobase +0, in deoxyribose +0 [1, 3]: 77.58% and 77.11% and 77.29%
- % sum abundance, unlabeled DNA-C, mass increase in nucleobase +0, in deoxyribose +1 [1, 3]: 4.40% and 4.55% and 4.26%
- % sum abundance, unlabeled DNA-C, mass increase in nucleobase +0, in deoxyribose +2 [1, 3]: 0.75% and 0.68% and 0.59%
- % sum abundance, unlabeled DNA-C, mass increase in nucleobase +1, in deoxyribose +0 [1, 3]: 4.14% and 4.45% and 4.26%
- % sum abundance, unlabeled DNA-C, mass increase in nucleobase +1, in deoxyribose +1 [1, 3]: 0.23% and 0.29% and 0.22%
- % sum abundance, unlabeled DNA-C, mass increase in nucleobase +1, in deoxyribose +2 [1, 3]: 0.00%
- % sum abundance, unlabeled DNA-C, mass increase in nucleobase +2, in deoxyribose +0 [1, 3]: 0.23% and 0.31% and 0.29%
- % sum abundance, unlabeled DNA-C, mass increase in nucleobase +2, in deoxyribose +1 [1, 3]: 0.00%
- % sum abundance, unlabeled DNA-C, mass increase in nucleobase +2, in deoxyribose +2 [1, 3]: 0.00%
- % sum abundance, unlabeled DNA-C, mass increase in nucleobase +3, in deoxyribose +0 [1, 3]: 0.00%
- % sum abundance, unlabeled DNA-C, mass increase in nucleobase +3, in deoxyribose +1 [1, 3]: 0.00%
- % sum abundance, unlabeled DNA-C, mass increase in nucleobase +4, in deoxyribose +0 [1, 3]: 0.00%
- De novo: rate of dCTP incorporation into newly replicated DNA (slope ± standard error of regression line) [1, 4]: 0.23 ± 0.01 arbitrary unit
- Ratio (salvage/de novo) [1, 4]: 0.082
- Salvage: rate of dCTP incorporation into newly replicated DNA (slope ± standard error of regression line) [1, 4]: 0.019 ± 0.004 arbitrary unit
- reduction of dCK activity (contribution of labeled [13C9,15N3]dC to intracellular dCMP) ([1]; asynchronous CEM, 12 h): ~ 90%
- Substrate utilization Glucose ([1]; summary Fig. 2g, CEM cells): ↑
- Substrate utilization dC ([1]; summary Fig. 2g, CEM cells): ↓↓↓
- Annexin V+ cells (apoptosis induction) ([2]; cells harvested from bone marrow of a treated leukemic mouse): 11.0%
- Annexin V+ cells (apoptosis induction) ([2]; cells prior to inoculation in mice): 20.4%
